Source: ChEMBL document CHEMBL3608256, “Strongylophorines, new protein tyrosine phosphatase 1B inhibitors, from the marine sponge Strongylophora strongilata collected at Iriomote Island” (Bioorg Med Chem Lett, 2015)

target: T1, Tyrosine-protein phosphatase non-receptor type 1 (Homo sapiens, UniProt P18031); assay: Inhibition of PTP1B (unknown origin) pre-incubated for 10 mins before addition of p-nitrophenyl phosphate substrate and measured 30 mins post substrate addition
T1 sequence (P18031 whole entry): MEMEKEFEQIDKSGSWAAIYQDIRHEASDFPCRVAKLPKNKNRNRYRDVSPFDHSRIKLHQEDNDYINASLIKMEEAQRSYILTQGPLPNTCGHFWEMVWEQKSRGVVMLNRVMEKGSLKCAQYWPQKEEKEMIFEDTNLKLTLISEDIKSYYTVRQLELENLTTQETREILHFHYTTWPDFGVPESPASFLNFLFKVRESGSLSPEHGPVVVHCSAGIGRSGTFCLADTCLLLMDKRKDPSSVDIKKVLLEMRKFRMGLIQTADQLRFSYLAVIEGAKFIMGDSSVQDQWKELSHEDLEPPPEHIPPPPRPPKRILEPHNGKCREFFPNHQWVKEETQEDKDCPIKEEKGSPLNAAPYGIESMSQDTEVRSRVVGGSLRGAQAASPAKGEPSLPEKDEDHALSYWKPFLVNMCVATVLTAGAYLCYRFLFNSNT

First: CCO[C@H]1OC[C@]23CCC[C@]1(C)[C@@H]2CC[C@]1(C)[C@@H]3CC[C@](C)(O)[C@H]1Cc1cc(O)ccc1O
Second: C[C@@]12CC[C@@H]3[C@]4(CCC[C@]3(C)C(=O)OC4)[C@H]1CC[C@](C)(O)[C@H]2Cc1cc(O)ccc1O [strongylophorine-8]
The IC50 of the first is 2.4-fold lower: 8.7 µM for the first, 21.2 µM for the second.

`CO[C@H]1OC[C@]23CCC[C@]1(C)[C@@H]2CC[C@]1(C)[C@@H]3CC[C@]2(C)Oc3ccccc3C[C@@H]12` and `C[C@]12CCC[C@@]3(CO[C@@H]1O)[C@H]2CC[C@]1(C)[C@@H]3CC[C@]2(C)Oc3ccc(O)cc3C[C@@H]12` are within 1.5-fold of each other in IC50: 8.5 µM for the first, 11.9 µM for the second.

Compared with `C[C@]1(CO)CCC[C@@]2(CO)[C@H]1CC[C@]1(C)[C@@H]2CC[C@]2(C)Oc3ccc(O)cc3C[C@@H]12`, `C[C@]12CCC[C@](C)(C(=O)O)[C@@H]1CC[C@]1(C)[C@@H]2CC[C@]2(C)Oc3ccc(O)cc3C[C@@H]12` [Strongylophorin-3] is 1.6-fold lower in IC50: 14.8 µM for the first, 9 µM for the second.

`C[C@@]12CC[C@@H]3[C@]4(CCC[C@@]3(C)C(=O)OC4)[C@H]1CC[C@]1(C)Oc3ccc(O)cc3C[C@@H]21` [strongylophorine-2] showed an IC50 of over 24.4 µM.
